Test results reported in patent US8293773B2, “1, 2, 3-triazole derivatives as new cannabinoid-1 receptor antagonists” (National Tsing Hua University, priority 2008, dated 2012).

Target: T1, human CB1 receptor (Homo sapiens, UniProt P21554)
T1 construct: expressed in transfected cells; membrane-enriched fractions
Assay: competitive radioligand binding assay, displacement of [3H]CP55,940, CB1
Settings: for IC50: displacement of specific [3H]-CP55940 binding in HEK 293 cells stably transfected with human CB1 receptor
Experimental: In addition, the affinity of test compounds of this invention toward CB1 and CB2 receptors was determined by competitive radioligand binding assays in vitro. This method differentiates the binding strength between compounds by their abilities in displacing a receptor-specific radioactive ligand. […] The readings of the radioactivity retained allow further analysis of receptor binding, and assist in predictions of the pharmacological activities of the test compounds.
In the assays, CB1 receptors are from human CB1 stably expressed cell lines, and CB2 receptors are from human CB2 stably expressed cell lines. For purification of membrane-enriched fractions, cells were scraped off from the culture dishes in ice-cold buffer A (50 mM Tris, 5 mM MgCl2, 2.5 mM EDTA, pH 7.4, 10% sucrose) with 1 mM PMSF. After sonication, the membrane-enriched fractions were centrifuged for 15 minutes at 2,000×g at 4° C. The supernatant was centrifuged again for 30 minutes at 43,000×g at 4° C. The final pellet was re-suspended in buffer A and stored at −80° C. The protein concentration of the purified membrane was determined by the Bradford method as described by the manual provided by Bio-Rad Laboratories, Inc., Hercules, Calif.
During the receptor binding experiments, 0.2˜8 μg of membrane fractions were incubated with 0.75 nM [^3H]CP55,940 and a test compound in the incubation buffer of 50 mM Tris-HCl, 5 mM MgCl2, 1 mM EDTA, 0.3% BSA, pH 7.4. The non-specific binding was determined by using 1 μM of CP55,940. The mixture was incubated for 1.5 hours at 30° C. in Multiscreen microplates (Millipore, Billerica, Mass.). At the completion of the incubation, the reaction was terminated by Manifold filtration and washed with ice-cold wash buffer (50 mM Tris, pH 7.4, 0.25% BSA) four times. The radioactivity bound to the filters was measured by Topcount (Perkin Elmer Inc.).

[1] = Table 2, percent inhibition at 10 μM
[2] = Table 1, percent inhibition at 10 μM

T1 sequence (P21554 whole entry): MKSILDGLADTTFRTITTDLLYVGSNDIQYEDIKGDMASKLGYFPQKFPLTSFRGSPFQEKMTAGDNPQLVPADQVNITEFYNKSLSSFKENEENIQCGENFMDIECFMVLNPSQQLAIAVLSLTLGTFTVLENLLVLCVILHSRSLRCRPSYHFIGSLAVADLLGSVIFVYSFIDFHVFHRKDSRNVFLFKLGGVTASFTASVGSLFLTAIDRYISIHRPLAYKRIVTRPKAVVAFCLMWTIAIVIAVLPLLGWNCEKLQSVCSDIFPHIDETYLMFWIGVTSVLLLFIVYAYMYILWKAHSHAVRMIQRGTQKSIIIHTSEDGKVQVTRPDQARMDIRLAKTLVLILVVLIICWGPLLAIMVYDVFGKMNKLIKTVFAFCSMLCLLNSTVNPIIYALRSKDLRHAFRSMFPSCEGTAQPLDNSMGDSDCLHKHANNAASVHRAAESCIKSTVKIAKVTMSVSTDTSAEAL

Structure (SMILES)	inhibition at 10 µM [1]	inhibition at 10 µM [2]	other results
COc1ccc(CNC(=O)Cn2nc(-c3ccc(Cl)cc3)c(-c3ccc(Cl)cc3Cl)n2)cc1OC [Compound 164]	82.1%		IC50: 2830 ± 378 nM
O=C(NC12CC3CC(CC(C3)C1)C2)n1nc(-c2ccc(Cl)cc2)c(-c2ccc(Cl)cc2)n1 [Compound 107]	19.7%		
O=C(NC1CCCCC1)n1nc(-c2ccc(Cl)cc2)c(-c2ccc(Cl)cc2)n1 [Compound 100]			CB1 Inhibition (%) (10 μM) (Table 2, percent inhibition at 10 μM, 10 µM): 19.90%
COc1ccc(NC(=O)n2nc(-c3ccc(Cl)cc3Cl)c(-c3ccc(Cl)cc3Cl)n2)cc1 [Compound 78]	6.4%		
O=C(Cn1nc(-c2ccc(Cl)cc2Cl)c(-c2ccc(Cl)cc2Cl)n1)N[C@@H](CO)[C@H](O)c1ccc([N+](=O)[O-])cc1 [Compound 135]	60.1%		
O=C(NCCc1ccccc1)n1nc(-c2ccc(Cl)cc2Cl)c(-c2ccc(Cl)cc2Cl)n1 [Compound 27]		46%	
O=C(Cn1nc(-c2ccc(Cl)cc2)c(-c2ccc(Cl)cc2Cl)n1)NCc1ccccc1Cl [Compound 159]	87.3%		IC50: 365 ± 160 nM
O=C(NC12CC3CC(CC(C3)C1)C2)n1nc(-c2ccc(Cl)cc2Cl)c(-c2ccc(Cl)cc2Cl)n1 [Compound 113]	78.9%		IC50: 4500 ± 871 nM
O=C(Cn1nnc(-c2ccc(Cl)cc2Cl)c1-c1ccc(Cl)cc1Cl)N1CCCCC1 [Compound 60]		55.7%	
Cc1cccc(CNC(=O)Cn2nc(-c3ccc(Cl)cc3)c(-c3ccc(Cl)cc3Cl)n2)c1 [Compound 155]	85%		IC50: 473 ± 300 nM
CSc1ccc([C@@H](O)[C@@H](CO)NC(=O)Cn2nc(-c3ccc(Cl)cc3Cl)c(-c3ccc(Cl)cc3Cl)n2)cc1 [Compound 136]	66.3%		
O=C(Cn1nc(-c2ccc(Cl)cc2)c(-c2ccc(Cl)cc2Cl)n1)N1CCCCC1 [Compound 129]	76.5%		IC50: 587 ± 139 nM
O=C(Cn1nc(-c2ccc(Cl)cc2)c(-c2ccc(Cl)cc2Cl)n1)NCc1ccc(F)c(F)c1 [Compound 166]	88.3%		
COc1ccc(CNC(=O)Cn2nc(-c3ccc(Cl)cc3)c(-c3ccc(Cl)cc3Cl)n2)cc1 [Compound 149]	78.2%		IC50: 684 ± 428 nM
O=C(Cn1nc(-c2ccc(Cl)cc2)c(-c2ccc(Cl)cc2Cl)n1)NCc1cccc2c1OCO2 [Compound 151]	61.8%		IC50: 5970 ± 2600 nM

The next lines start with results.

inhibition at 10 µM [1]	inhibition at 10 µM [2]	Structure (SMILES)	other results
	27.5%	CCCCCCCNC(=O)NNC(=O)Cn1nnc(-c2ccc(Cl)cc2)c1-c1ccc(Cl)cc1 [Compound 50]	
	51.2%	CCCCCCCCOC(=O)Cn1nnc(-c2ccc(Cl)cc2)c1-c1ccc(Cl)cc1 [Compound 26]	
18.6%		O=C(NCc1ccccc1)n1nc(-c2ccc(Cl)cc2)c(-c2ccc(Cl)cc2Cl)n1 [Compound 105]	
	27.1%	CCCCOC(=O)Cn1nnc(-c2cccc(F)c2)c1-c1cccc(F)c1 [Compound 22]	
	53.6%	CCCCCCCOC(=O)Cn1nnc(-c2ccc(Cl)cc2)c1-c1ccc(Cl)cc1 [Compound 25]	
32.1%		CC(C)(C)C(=O)n1nc(-c2ccccc2)c(-c2ccccc2)n1 [Compound 66]	
	18.6%	CCCCCNC(=O)NNC(=O)Cn1nnc(-c2ccc(Cl)cc2)c1-c1ccc(Cl)cc1 [Compound 51]	
	36.5%	CCCCCCOC(=O)Cn1nnc(-c2ccc(Cl)cc2)c1-c1ccc(Cl)cc1 [Compound 28]	
	23.8%	CCCCN(CCCC)C(=O)Cn1nnc(-c2ccccc2)c1-c1ccccc1 [Compound 38]	
72.7%		CCCCCCOC(=O)Cn1nc(-c2ccc(Cl)cc2Cl)c(-c2ccc(Cl)cc2Cl)n1 [Compound 115]	IC50: 4460 ± 698 nM
	12.3%	O=C(Cn1nnc(-c2ccccc2)c1-c1ccccc1)NN1CCCCC1 [Compound 8]	
	22%	CCCCOC(=O)Cn1nncc1-c1ccccc1 [Compound 13]	
	18.3%	CCCCOC(=O)Cn1nnc(-c2cccc(Br)c2)c1-c1cccc(Br)c1 [Compound 62]	
11.2%		O=C(NCCc1ccccc1)n1nc(-c2ccc(Cl)cc2Cl)c(-c2ccc(Cl)cc2Cl)n1 [Compound 91]	
